According to patent US9204640B2, “2-acyloxy-pyrrolin-4-ones” (BAYER INTELLECTUAL PROPERTY GMBH, priority 2011, dated 2015):

Legend:
Type in all cases: in vivo
Bemisia tabaci = Bemisia tabaci spray test (BEMITA); conditions: 20 g/ha; 7dat
Experimental: Bemisia Tabaci-Spray Test ([…]) To produce a suitable preparation of active compound, 1 part by weight of active compound is mixed with the stated amount of solvent and emulsifier, and the concentrate is diluted with emulsifier-containing water to the desired concentration. Discs of cotton leaves (Gossypium hirsutum) which are infested by all stages of the whitefly (Bemisia tabaci) are sprayed with an active compound preparation of the desired concentration. After the desired period of time, the activity in % is determined. 100% means that all the whiteflies have been killed; 0% means that none of the whiteflies have been killed.

Spodoptera frugiperda = Spodoptera frugiperda test (SPODFR spray treatment)
Experimental: Spodoptera Frugiperda Test (SPODFR Spray Treatment) [table] To produce a suitable preparation of active compound, 1 part by weight of active compound is mixed with the stated amount of solvent and emulsifier, and the concentrate is diluted with emulsifier-containing water to the desired concentration. Discs of corn leaves (Zea mays) are sprayed with an active compound preparation of the desired concentration and, after drying, populated with caterpillars of the armyworm (Spodoptera frugiperda). After 7 days, the effect in % is determined. 100% means that all caterpillars have been killed; 0% means that none of the caterpillars have been killed. Spodoptera Frugiperda Test (SPODFR Spray Treatment) To produce a suitable preparation of active compound, 1 part by weight of active compound is mixed with the stated amount of solvent and emulsifier, and the concentrate is diluted with emulsifier-containing water to the desired concentration. Discs of corn leaves (Zea mays) are sprayed with an active compound preparation of the desired concentration and, after drying, populated with caterpillars of the armyworm (Spodoptera frugiperda). After the desired period of time, the activity in % is determined. 100% means that all caterpillars have been killed; 0% means that none of the caterpillars have been killed.

Tetranychus urticae = assay: Tetranychus test (TETRUR spray treatment; OP-resistant in Example 10)
Experimental: Tetranychus Test (TETRUR Spray Treatment)
To produce a suitable preparation of active compound, 1 part by weight of active compound is mixed with the stated amount of solvent and emulsifier, and the concentrate is diluted with emulsifier-containing water to the desired concentration. Discs of bean leaves (Phaseolus vulgaris) which are infested by all stages of the greenhouse red spider mite (Tetranychus urticae) are sprayed with an active compound preparation of the desired concentration.
After 5 days, the effect in % is determined. 100% means that all of the spider mites have been killed; 0% means that none of the spider mites have been killed.
Tetranychus Test, OP-Resistant (TETRUR Spray Treatment)
To produce a suitable preparation of active compound, 1 part by weight of active compound is mixed with the stated amount of solvent and emulsifier, and the concentrate is diluted with emulsifier-containing water to the desired concentration.
Discs of bean leaves (Phaseolus vulgaris) which are infested by all stages of the greenhouse red spider mite (Tetranychus urticae) are sprayed with an active compound preparation of the desired concentration.
After the desired period of time, the activity in % is determined. 100% means that all of the spider mites have been killed; 0% means that none of the spider mites have been killed.

Liriomyza trifolii = Liriomyza trifolii spray test (LIRITR); conditions: 20 g/ha; 7dat
Experimental: Liriomyza Trifolii-Spray Test ([…]) To produce a suitable preparation of active compound, 1 part by weight of active compound is mixed with the stated amount of solvent and emulsifier, and the concentrate is diluted with emulsifier-containing water to the desired concentration. If the addition of ammonium salts or/and penetrants is required, these are in each case added in a concentration of 1000 ppm to the solution of the preparations. Discs of bean leaves (Phaseolus vulgaris) which are infested by all stages of the leaf-mining fly (Liriomyza trifolii) are sprayed with an active compound preparation of the desired concentration. After the desired period of time, the activity in % is determined. 100% means that all of the leaf-mining flies have been killed; 0% means that none of the leaf-mining flies have been killed.

Lucilia cuprina larvae = assay: Lucilia cuprina test (LUCICU); conditions: 100 ppm, after 2 days
Experimental: Lucilia Cuprina Test (LUCICU) [table] To prepare an appropriate active compound formulation, 10 mg of active compound are mixed with 0.5 ml of dimethyl sulfoxide and the concentrate is diluted with water to the desired concentration. Vessels containing horse meat treated with the active compound preparation of the desired concentration are populated with about 20 Lucilia cuprina larvae. After 2 days, the kill in % is determined. 100% means that all of the larvae have been killed; 0% means that none of the larvae have been killed.

Boophilus microplus = Boophilus microplus test (BOOPMI injection); conditions: 20 μg/animal, after 7 days
Experimental: Boophilus Microplus Test (BOOPMI Injection) [table] To prepare an appropriate active compound formulation, 10 mg of active compound are mixed with 0.5 ml of solvent and the concentrate is diluted with solvent to the desired concentration. The solution of active compound is injected into the abdomen (Boophilus microplus), and the animals are transferred into dishes and kept in a climatized room. The activity is assessed by deposition of fertile eggs. After 7 days, the effect in % is determined. 100% means that none of the ticks has laid any fertile eggs.

Myzus persicae = assay: Myzus test (MYZUPE spray treatment); conditions: application rate 500 g/ha, after 5 days, Chinese cabbage leaf discs
Procedure, shortened: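 Chinese cabbage leaf discs carrying all stages of green peach aphid sprayed with compound diluted in emulsifier-containing water to the desired concentration. Mortality scored as % after 5 days, where 100% means all aphids dead and 0% none.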

Phaedon cochleariae = assay: Phaedon test (PHAECO spray treatment); conditions: application rate 500 g/ha, after 7 days, Chinese cabbage leaf discs
Experimental: Phaedon Test ([…] Spray Treatment) [table] To produce a suitable preparation of active compound, 1 part by weight of active compound is mixed with the stated amount of solvent and emulsifier, and the concentrate is diluted with emulsifier-containing water to the desired concentration. Discs of Chinese cabbage (Brassica pekinensis) are sprayed with an active compound preparation of the desired concentration and, after drying, populated with larvae of the mustard beetle (Phaedon cochleariae). After 7 days, the effect in % is determined 100% means that all beetle larvae have been killed; 0% means that none of the beetle larvae have been killed. Phaedon Test ([…] Spray Treatment) To produce a suitable preparation of active compound, 1 part by weight of active compound is mixed with the stated amount of solvent and emulsifier, and the concentrate is diluted with emulsifier-containing water to the desired concentration. Discs of Chinese cabbage (Brassica pekinensis) are sprayed with an active compound preparation of the desired concentration and, after drying, populated with larvae of the mustard beetle (Phaedon cochleariae). After the desired period of time, the activity in % is determined. 100% means that all beetle larvae have been killed; 0% means that none of the beetle larvae have been killed.

CCOC(=O)OC1=C(c2c(C)cc(C)cc2C)C(=O)C2(CCC(COC)CC2)N1 (stereo not shown) [I-b-3]
% Activity BEMITA (Bemisia tabaci): 72%
% Activity SPODFR (Spodoptera frugiperda; 500 g/ha, 7dat): 100%
effect in % (caterpillars killed) (Spodoptera frugiperda; application rate 500 g/ha, after 7 days, corn leaf discs): 100%
% Activity TETRUR (Tetranychus urticae; 20 g/ha, 5dat, OP-resistant): 80%
effect in % (spider mites killed) (Tetranychus urticae; application rate 100 g/ha, after 5 days, bean leaf discs): 90%
% Activity LIRITRI (Liriomyza trifolii): 80%
kill in % (larvae) (Lucilia cuprina larvae): 90%
efficacy in % (deposition of fertile eggs) (Boophilus microplus): 100%
effect in % (aphids killed) (Myzus persicae): 90%
effect in % (beetle larvae killed) (Phaedon cochleariae): 100%
